The source of these data is patent US11661426B2, “Imidazole-containing inhibitors of ALK2 kinase” (BioCryst Pharmaceuticals, Inc., priority 2017, dated 2023).

The structures appear in SMILES notation.

Sequence of ALK2 (Q04771 21-509): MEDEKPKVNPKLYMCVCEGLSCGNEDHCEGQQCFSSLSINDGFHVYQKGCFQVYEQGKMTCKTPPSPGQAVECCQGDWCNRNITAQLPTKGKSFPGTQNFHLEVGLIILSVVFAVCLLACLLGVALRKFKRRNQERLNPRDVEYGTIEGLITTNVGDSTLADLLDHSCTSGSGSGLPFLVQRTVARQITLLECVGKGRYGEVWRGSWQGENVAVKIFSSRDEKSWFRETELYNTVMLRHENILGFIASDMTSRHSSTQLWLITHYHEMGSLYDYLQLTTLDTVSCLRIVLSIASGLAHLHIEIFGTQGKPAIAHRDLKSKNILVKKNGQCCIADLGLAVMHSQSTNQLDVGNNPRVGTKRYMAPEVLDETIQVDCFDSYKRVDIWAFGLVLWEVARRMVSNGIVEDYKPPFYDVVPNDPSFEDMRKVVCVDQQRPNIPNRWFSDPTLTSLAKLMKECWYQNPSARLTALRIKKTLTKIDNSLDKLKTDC

The assay deals with ALK2 (Homo sapiens (Human), UniProt Q04771). In words: ALK2 inhibition, LanthaScreen Eu Kinase Binding Assay (ThermoFisher Scientific / Life Technologies). The following applies: read-out: Measured Ki (IC50) Value for Compounds: IC50. The protocol:
Biochemical assays to measure the inhibitory effects of the compounds were performed by ThermoFisher Scientific (Life Technologies). ALK2 inhibition was tested using LanthaScreen™ Eu Kinase Binding Assay screening protocol.
(In general: Time-resolved FRET reads energy transfer from a long-lived donor to a nearby acceptor.)
One may read the IC50 as the concentration that gives 50% inhibition. As for `COc1cc(-n2cnc(Nc3nc(N4CCC[C@@H]4CO)nc4scnc34)c2)cc(OC)c1OC` [Compound 317a, (R)-(1-(7-((1-(3,4,5-trimethoxyphenyl)-1H-imidazol-4-yl)amino)thiazolo[5,4-d]pyrimidin-5-yl)pyrrolidin-2-yl)methanol], the 50% inhibitory concentration (IC50) was below 100 nM.
`COc1cc(-n2cnc(Nc3nc(N4CCC[C@@H]4C(N)=O)nc4scnc34)c2)cc(OC)c1OC` [Compound 318a, (R)-1-(7-((1-(3,4,5-trimethoxyphenyl)-1H-imidazol-4-yl)amino)thiazolo[5,4-d]pyrimidin-5-yl)pyrrolidine-2-carboxamide]: the IC50 was below 100 nM.
For `CCOc1ccc(-n2cnc(Nc3nc(N4CCC[C@H]4CO)nn4cccc34)c2)cc1OCC` [Compound 319b, (S)-(1-(4-((1-(3,4-diethoxyphenyl)-1H-imidazol-4-yl)amino)pyrrolo[2,1-f][1,2,4]triazin-2-yl)pyrrolidin-2-yl)methanol], the IC50 was in the range of 100 to 1000 nM.
Then `COc1ccc(-n2cnc(Nc3nc(N4CCC[C@H]4CO)nn4cccc34)c2)cc1C(F)(F)F` [Compound 320b, (S)-(1-(4-((1-(4-methoxy-3-(trifluoromethyl)phenyl)-1H-imidazol-4-yl)amino)pyrrolo[2,1-f][1,2,4]triazin-2-yl)pyrrolidin-2-yl)methanol], with below 100 nM.
Then `COc1cncc(-n2cnc(Nc3nc(N4CCC[C@H]4CO)nn4cccc34)c2)c1` [Compound 321b, (S)-(1-(4-((1-(5-methoxypyridin-3-yl)-1H-imidazol-4-yl)amino)pyrrolo[2,1-f][1,2,4]triazin-2-yl)pyrrolidin-2-yl)methanol], with below 100 nM; and `COc1cc(Cl)cc(-n2cnc(Nc3nc(N4CCC[C@H]4CO)nn4cccc34)c2)c1` [Compound 322b, (S)-(1-(4-((1-(3-chloro-5-methoxyphenyl)-1H-imidazol-4-yl)amino)pyrrolo[2,1-f][1,2,4]triazin-2-yl)pyrrolidin-2-yl)methanol], with below 100 nM; and `COc1cc(-n2cnc(Nc3nc(N4C[C@@H]5C[C@@H]5[C@@H]4CO)c4cccn4n3)c2)cc(OC)c1OC` [Compound 324b, ((1S,2R,5R)-3-(2-((1-(3,4,5-trimethoxyphenyl)-1H-imidazol-4-yl)amino)pyrrolo[2,1-f][1,2,4]triazin-4-yl)-3-azabicyclo[3.1.0]hexan-2-yl)methanol], with 100 to 1000 nM.
For `COc1cc(-n2cnc(Nc3nc(N4[C@H](CO)C[C@H]5C[C@H]54)c4cccn4n3)c2)cc(OC)c1OC` [Compound 325e, ((1R,3S,5R)-2-(2-((1-(3,4,5-trimethoxyphenyl)-1H-imidazol-4-yl)amino)pyrrolo[2,1-f][1,2,4]triazin-4-yl)-2-azabicyclo[3.1.0]hexan-3-yl)methanol], the IC50 is below 100 nM.
For the compound `COc1cc(-n2cnc(Nc3nc(N4CCC[C@H]4CO)nc4c3cnn4C3CCCCO3)c2)cc(OC)c1OC` (stereo partly drawn) [Compound 326c, ((2S)-1-(1-(tetrahydro-2H-pyran-2-yl)-4-((1-(3,4,5-trimethoxyphenyl)-1H-imidazol-4-yl)amino)-1H-pyrazolo[3,4-d]pyrimidin-6-yl)pyrrolidin-2-yl)methanol], the IC50 is below 100 nM.
As to `COc1cc(-n2cnc(Nc3nc(N4CCC[C@@H]4CO)c4ccccc4n3)c2)cc(OC)c1OC` [Compound 327b, (R)-(1-(2-((1-(3,4,5-trimethoxyphenyl)-1H-imidazol-4-yl)amino)quinazolin-4-yl)pyrrolidin-2-yl)methanol], the IC50 is below 100 nM.
In the case of `COc1cc(-n2cnc(Nc3nc(N4CCC[C@H]4CO)c4c(cnn4C)n3)c2)cc(OC)c1OC` [Compound 328c, (S)-(1-(1-methyl-5-((1-(3,4,5-trimethoxyphenyl)-1H-imidazol-4-yl)amino)-1H-pyrazolo[4,3-d]pyrimidin-7-yl)pyrrolidin-2-yl)methanol], the IC50 was below 100 nM.
Then `COc1cc(-n2cnc(Nc3nc(N4CCC[C@H]4CO)nc4[nH]ncc34)c2)cc(OC)c1OC` [Compound 329a, (S)-(1-(4-((1-(3,4,5-trimethoxyphenyl)-1H-imidazol-4-yl)amino)-1H-pyrazolo[3,4-d]pyrimidin-6-yl)pyrrolidin-2-yl)methanol], with below 100 nM; and `OC[C@@H]1CCCN1c1nc(Nc2cn(-c3cccc(OC(F)(F)F)c3)cn2)c2cccn2n1` [Compound 330b, (S)-(1-(4-((1-(3-(trifluoromethoxy)phenyl)-1H-imidazol-4-yl)amino)pyrrolo[2,1-f][1,2,4]triazin-2-yl)pyrrolidin-2-yl)methanol], with below 100 nM; and `Cc1cc(OC(F)(F)F)cc(-n2cnc(Nc3nc(N4CCC[C@H]4CO)nn4cccc34)c2)c1` [Compound 331b, (S)-(1-(4-((1-(3-methyl-5-(trifluoromethoxy)phenyl)-1H-imidazol-4-yl)amino)pyrrolo[2,1-f][1,2,4]triazin-2-yl)pyrrolidin-2-yl)methanol], with below 100 nM.
Then `COc1cc(-n2cnc(Nc3nc(N4C[C@@H]5C[C@@H]5[C@H]4CO)c4cccn4n3)c2)cc(OC)c1OC` [Compound 332b, ((1S,2S,5R)-3-(2-((1-(3,4,5-trimethoxyphenyl)-1H-imidazol-4-yl)amino)pyrrolo[2,1-f][1,2,4]triazin-4-yl)-3-azabicyclo[3.1.0]hexan-2-yl)methanol], with below 100 nM; and `COc1cc(-n2cnc(Nc3nc(N4CC[C@H](CO)C4)c4cccn4n3)c2)cc(OC)c1OC` [Compound 333b, (S)-(1-(2-((1-(3,4,5-trimethoxyphenyl)-1H-imidazol-4-yl)amino)pyrrolo[2,1-f][1,2,4]triazin-4-yl)pyrrolidin-3-yl)methanol], with below 100 nM.
Consider `COc1cc(-n2cnc(Nc3nc(N4CCN(C)CC4)nn4cccc34)c2)cc(OC)c1OC` [Compound 334a, 2-(4-methylpiperazin-1-yl)-N-(1-(3,4,5-trimethoxyphenyl)-1H-imidazol-4-yl)pyrrolo[2,1-f][1,2,4]triazin-4-amine], for which the IC50 is below 100 nM.
Consider `COc1cc(-n2cnc(Nc3nc(N4CCC[C@H]4CO)c4cccc(CN5CCCCC5)c4n3)c2)cc(OC)c1OC` [Compound 335d, (S)-(1-(8-(piperidin-1-ylmethyl)-2-((1-(3,4,5-trimethoxyphenyl)-1H-imidazol-4-yl)amino)quinazolin-4-yl)pyrrolidin-2-yl)methanol], for which the IC50 was below 100 nM.
As to `COc1cc(-n2cnc(Nc3nc(N4CCC[C@H]4CO)nc4c3cnn4C)c2)cc(OC)c1OC` [Compound 336c, (S)-(1-(1-methyl-4-((1-(3,4,5-trimethoxyphenyl)-1H-imidazol-4-yl)amino)-1H-pyrazolo[3,4-d]pyrimidin-6-yl)pyrrolidin-2-yl)methanol], the IC50 was below 100 nM.
`COc1cc(-n2cnc(Nc3nc(N4CCC[C@H]4C(N)=O)nc4c3cnn4C)c2)cc(OC)c1OC` [Compound 337a, (S)-1-(1-methyl-4-((1-(3,4,5-trimethoxyphenyl)-1H-imidazol-4-yl)amino)-1H-pyrazolo[3,4-d]pyrimidin-6-yl)pyrrolidine-2-carboxamide]: the IC50 is below 100 nM.
Turning to `COc1cc(-n2cnc(Nc3nc(N4CCC[C@H]4CO)c4cnn(C)c4n3)c2)cc(OC)c1OC` [Compound 338b, (S)-(1-(1-methyl-6-((1-(3,4,5-trimethoxyphenyl)-1H-imidazol-4-yl)amino)-1H-pyrazolo[3,4-d]pyrimidin-4-yl)pyrrolidin-2-yl)methanol], the IC50 is below 100 nM.
For the compound `OC[C@@H]1CCCN1c1nc(Nc2cn(-c3ccc4c(c3)OC(F)(F)O4)cn2)c2occc2n1` [Compound 339e, (S)-(1-(4-(1-(2,2-difluorobenzo[d][1,3]dioxol-5-yl)-1H-imidazol-4-ylamino)furo[3,2-d]pyrimidin-2-yl)pyrrolidin-2-yl)methanol], the IC50 is 100 to 1000 nM.
In the case of `COc1cc(-n2cnc(Nc3nc(N4CCC[C@H]4C(N)=O)nc4cccc(F)c34)c2)cc(OC)c1OC` [Compound 340c, (S)-1-(5-fluoro-4-((1-(3,4,5-trimethoxyphenyl)-1H-imidazol-4-yl)amino)quinazolin-2-yl)pyrrolidine-2-carboxamide], the IC50 lay within 100 to 1000 nM.
On to `COc1cc(-n2cnc(Nc3nc(N4CCC[C@H]4CO)nc4cccc(F)c34)c2)cc(OC)c1OC` [Compound 341a, (S)-(1-(5-fluoro-4-((1-(3,4,5-trimethoxyphenyl)-1H-imidazol-4-yl)amino)quinazolin-2-yl)pyrrolidin-2-yl)methanol], for which the IC50 was below 100 nM.
Turning to `COc1cc(-n2cnc(Nc3nc(N4CCC[C@H]4CO)nc4c3COCC4)c2)cc(OC)c1OC` [Compound 342c, (S)-(1-(4-((1-(3,4,5-trimethoxyphenyl)-1H-imidazol-4-yl)amino)-7,8-dihydro-5H-pyrano[4,3-d]pyrimidin-2-yl)pyrrolidin-2-yl)methanol], the IC50 is below 100 nM.
On to `COc1cc(-n2cnc(Nc3nc4c(c(N5CCC[C@H]5CO)n3)COCC4)c2)cc(OC)c1OC` [Compound 343b, (S)-(1-(2-((1-(3,4,5-trimethoxyphenyl)-1H-imidazol-4-yl)amino)-7,8-dihydro-5H-pyrano[4,3-d]pyrimidin-4-yl)pyrrolidin-2-yl)methanol], for which the concentration for half-maximal inhibition (IC50) is below 100 nM.
Take `COc1cc(-n2cnc(Nc3nc(N4CCC[C@H]4CO)nc4cc(Br)ccc34)c2)cc(OC)c1OC` [Compound 344c, (S)-(1-(7-bromo-4-((1-(3,4,5-trimethoxyphenyl)-1H-imidazol-4-yl)amino)quinazolin-2-yl)pyrrolidin-2-yl)methanol]: the IC50 was below 100 nM.
With `COc1cc(-n2cnc(Nc3nc(N4CCC[C@H]4C(N)=O)nc4cc(C#N)ccc34)c2)cc(OC)c1OC` [Compound 345c, (S)-1-(7-cyano-4-((1-(3,4,5-trimethoxyphenyl)-1H-imidazol-4-yl)amino)quinazolin-2-yl)pyrrolidine-2-carboxamide], the IC50 was below 100 nM.
On to `COc1cc(-n2cnc(Nc3cc4ccccc4c(N4CCC[C@H]4CO)n3)c2)cc(OC)c1OC` [Compound 346c, (S)-(1-(3-((1-(3,4,5-trimethoxyphenyl)-1H-imidazol-4-yl)amino)isoquinolin-1-yl)pyrrolidin-2-yl)methanol], for which the IC50 is 100 to 1000 nM.
